From patent publication US20240109917A1 (ACTELION PHARMACEUTICALS LTD, priority 2020, published 2024) come the findings set out here.

This assay has as its target VEGFR2, unphosphorylated (Homo sapiens (Human), UniProt P35968). Nature of the assay: VEGFR ADP GLO Assay. In kind it is biochemical. A general note: ADP-Glo first removes unused ATP, then detects ADP through luciferase.

Chain of VEGFR2, unphosphorylated (P35968 20-1356): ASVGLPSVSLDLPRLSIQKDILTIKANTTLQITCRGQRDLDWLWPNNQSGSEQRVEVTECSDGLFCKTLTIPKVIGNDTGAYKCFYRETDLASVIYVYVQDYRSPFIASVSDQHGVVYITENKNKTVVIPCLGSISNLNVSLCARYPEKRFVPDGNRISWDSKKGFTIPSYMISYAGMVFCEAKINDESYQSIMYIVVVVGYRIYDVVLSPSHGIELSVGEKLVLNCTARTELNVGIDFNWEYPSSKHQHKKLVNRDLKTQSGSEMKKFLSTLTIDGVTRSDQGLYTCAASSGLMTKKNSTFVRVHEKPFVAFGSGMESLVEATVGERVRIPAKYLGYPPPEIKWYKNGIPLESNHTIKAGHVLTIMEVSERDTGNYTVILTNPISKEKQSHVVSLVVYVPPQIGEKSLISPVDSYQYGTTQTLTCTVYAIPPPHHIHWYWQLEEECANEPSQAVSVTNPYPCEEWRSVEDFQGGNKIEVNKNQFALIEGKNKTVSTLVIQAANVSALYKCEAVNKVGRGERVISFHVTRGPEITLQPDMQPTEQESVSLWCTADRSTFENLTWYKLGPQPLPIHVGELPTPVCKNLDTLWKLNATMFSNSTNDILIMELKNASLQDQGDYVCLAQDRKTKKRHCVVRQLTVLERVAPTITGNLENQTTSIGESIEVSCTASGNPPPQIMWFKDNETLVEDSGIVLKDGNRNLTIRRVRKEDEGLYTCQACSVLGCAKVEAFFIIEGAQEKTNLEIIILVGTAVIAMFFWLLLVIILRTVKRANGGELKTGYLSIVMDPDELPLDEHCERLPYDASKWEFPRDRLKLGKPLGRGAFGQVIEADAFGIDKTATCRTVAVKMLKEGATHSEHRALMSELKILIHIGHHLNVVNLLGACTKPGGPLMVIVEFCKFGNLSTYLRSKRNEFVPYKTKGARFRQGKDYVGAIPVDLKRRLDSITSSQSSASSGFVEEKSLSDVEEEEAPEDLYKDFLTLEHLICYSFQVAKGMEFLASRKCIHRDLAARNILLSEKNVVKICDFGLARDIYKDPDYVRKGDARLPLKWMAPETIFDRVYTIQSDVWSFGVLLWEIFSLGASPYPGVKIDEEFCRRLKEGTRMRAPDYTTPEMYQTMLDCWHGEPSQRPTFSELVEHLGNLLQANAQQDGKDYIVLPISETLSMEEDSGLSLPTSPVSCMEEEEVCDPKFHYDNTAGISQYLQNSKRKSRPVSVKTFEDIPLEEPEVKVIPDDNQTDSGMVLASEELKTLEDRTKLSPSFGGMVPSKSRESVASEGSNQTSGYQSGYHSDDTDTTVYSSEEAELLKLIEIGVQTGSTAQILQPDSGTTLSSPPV

By IC50 is commonly meant the concentration that gives 50% inhibition. In turn, `Cc1ncc(NC(=O)CN2C[C@@H](C)O[C@H](C)C2)cc1NC(=O)c1cnn2cc(-c3cnn(CCS(C)(=O)=O)c3)sc12` (relative stereo) [Example 432, N-(5-(2-(trans-2,6-dimethylmorpholino)acetamido)-2-methylpyridin-3-yl)-2-(1-(2-(methylsulfonyl)ethyl)-1H-pyrazol-4-yl)pyrazolo[5,1-b]thiazole-7-carboxamide] came in with an IC50 greater than 2.5 µM.

As to `Cc1ncc(NC(=O)CN2C[C@@H](C)O[C@H](C)C2)cc1NC(=O)c1cnn2cc(-c3cnn(C)c3C)sc12` (relative stereo) [Example 433, 2-(1,5-Dimethyl-1H-pyrazol-4-yl)-N-(5-(2-(trans-2,6-dimethylmorpholino)acetamido)-2-methylpyridin-3-yl)pyrazolo[5,1-b]thiazole-7-carboxamide], the IC50 is greater than 7.5 µM.

Take `Cc1ncc(NC(=O)CN2CCCC[C@@H]2C)cc1NC(=O)c1cnn2cc(-c3cnn(CCO)c3)sc12` [Example 34, (S)-2-(1-(2-hydroxyethyl)-1H-pyrazol-4-yl)-N-(2-methyl-5-(2-(2-methyl-piperidin-1-yl)acetamido)pyridin-3-yl)pyrazolo[5,1-b]thiazole-7-carboxamide]: the IC50 is greater than 7.5 µM.

`Cc1cc(C(=O)NCCN2CCCC23CCC3)sc1NC(=O)c1cnn2cc(-c3cnn(C)c3)sc12` [Example 35, N-(5-((2-(5-azaspiro[3.4]octan-5-yl)ethyl)carbamoyl)-3-methylthiophen-2-yl)-2-(1-methyl-1H-pyrazol-4-yl)pyrazolo[5,1-b]thiazole-7-carboxamide]: the IC50 was greater than 7.5 µM.

For the compound `Cc1cc(C(=O)NCCN2CCCC2(C)C)sc1NC(=O)c1cnn2cc(-c3cccnc3)sc12` [Example 36, N-(5-((2-(2,2-dimethylpyrrolidin-1-yl)ethyl)carbamoyl)-3-methylthiophen-2-yl)-2-(pyridin-3-yl)pyrazolo[5,1-b]thiazole-7-carboxamide], the IC50 was greater than 7.5 µM.

Consider `Cc1cc(C(=O)NCCN2CCCC23CC3)sc1NC(=O)c1cnn2cc(-c3cnn(C)c3)sc12` [Example 37, N-(5-((2-(4-azaspiro[2.4]heptan-4-yl)ethyl)carbamoyl)-3-methylthiophen-2-yl)-2-(1-methyl-1H-pyrazol-4-yl)pyrazolo[5,1-b]thiazole-7-carboxamide], for which the IC50 is greater than 7.5 µM.

`Cc1ncc(NC(=O)NCCN2CCCC2(C)C)cc1NC(=O)c1cnn2cc(-c3cnn(C)c3)sc12` [Example 38, N-(5-(3-(2-(2,2-dimethylpyrrolidin-1-yl)ethyl)ureido)-2-methyl-pyridin-3-yl)-2-(1-methyl-1H-pyrazol-4-yl)pyrazolo[5,1-b]thiazole-7-carboxamide] showed a 50% inhibitory concentration (IC50) greater than 7.5 µM.

Consider `Cc1ncc(NC(=O)CN2CC(C)(C)C2)cc1NC(=O)c1cnn2cc(-c3cnn4c3OCCC4)sc12` [Example 39, 2-(6,7-dihydro-5H-pyrazolo[5,1-b][1,3]oxazin-3-yl)-N-(5-(2-(3,3-dimethylazetidin-1-yl)acetamido)-2-methylpyridin-3-yl)pyrazolo[5,1-b]thiazole-7-carboxamide], for which inhibition was half-maximal at 2.04 µM (IC50).

`COc1ccncc1-c1cn2ncc(C(=O)Nc3cc(NC(=O)CN4CC(C)(C)C4)cnc3C)c2s1` [Example 40, N-(5-(2-(3,3-dimethylazetidin-1-yl)acetamido)-2-methylpyridin-3-yl)-2-(4-methoxypyridin-3-yl)pyrazolo[5,1-b]thiazole-7-carboxamide] displayed an IC50 of 6.18 µM.

Turning to `COCCn1cc(-c2cn3ncc(C(=O)Nc4cc(NC(=O)CCN5CCCC5(C)C)cnc4C)c3s2)cn1` [Example 41, N-(5-(3-(2,2-dimethylpyrrolidin-1-yl)propanamido)-2-methylpyridin-3-yl)-2-(1-(2-methoxyethyl)-1H-pyrazol-4-yl)pyrazolo[5,1-b]thiazole-7-carboxamide], the concentration for half-maximal inhibition (IC50) was greater than 7.5 µM.

As to `Cc1ncc(NC(=O)CN2CCC23CCC3)cc1NC(=O)c1cnn2cc(-c3cnn4c3OCCC4)sc12` [Example 408, N-(5-(2-(1-azaspiro[3.3]heptan-1-yl)acetamido)-2-methylpyridin-3-yl)-2-(6,7-dihydro-5H-pyrazolo[5,1-b][1,3]oxazin-3-yl)pyrazolo[5,1-b]thiazole-7-carboxamide], the IC50 is greater than 7.5 µM.

Compound `Cc1ncc(NC(=O)CN2CC(C)(C)C2)cc1NC(=O)c1cnn2cc(-c3cnn4c3CCC4)sc12` [Example 409, 2-(5,6-dihydro-4H-pyrrolo[1,2-b]pyrazol-3-yl)-N-(5-(2-(3,3-dimethylazetidin-1-yl)acetamido)-2-methylpyridin-3-yl)pyrazolo[5,1-b]thiazole-7-carboxamide] gave an IC50 of 3.37 µM.

The compound `Cc1ncc(NC(=O)CN2CC(C)(C)C2)cc1NC(=O)c1cnn2cc(-c3ccnnc3C)sc12` [Example 410, N-(5-(2-(3,3-dimethylazetidin-1-yl)acetamido)-2-methylpyridin-3-yl)-2-(3-methylpyridazin-4-yl)pyrazolo[5,1-b]thiazole-7-carboxamide] displayed a 50% inhibitory concentration (IC50) greater than 7.5 µM.

In turn, `Cc1ncc(NC(=O)CN2CC3(COC3)C2)cc1NC(=O)c1cnn2cc(-c3cnn4c3OCCC4)sc12` [Example 411, N-(5-(2-(2-oxa-6-azaspiro[3.3]heptan-6-yl)acetamido)-2-methylpyridin-3-yl)-2-(6,7-dihydro-5H-pyrazolo[5,1-b][1,3]oxazin-3-yl)pyrazolo[5,1-b]thiazole-7-carboxamide] returned a half-maximal inhibitory concentration (IC50) greater than 7.5 µM.

As to `Cc1ncc(NC(=O)CN2CCC2)cc1NC(=O)c1cnn2cc(-c3cnn4c3OCCC4)sc12` [Example 412, N-(5-(2-(azetidin-1-yl)acetamido)-2-methylpyridin-3-yl)-2-(6,7-dihydro-5H-pyrazolo[5,1-b][1,3]oxazin-3-yl)pyrazolo[5,1-b]thiazole-7-carboxamide], the IC50 is greater than 7.5 µM.

For the compound `Cc1ncc(NC(=O)CN2CCC[C@@H]2C)cc1NC(=O)c1cnn2cc(-c3cnn4c3OCCC4)sc12` [Example 413, (S)-2-(6,7-dihydro-5H-pyrazolo[5,1-b][1,3]oxazin-3-yl)-N-(2-methyl-5-(2-(2-methylpyrrolidin-1-yl)acetamido)pyridin-3-yl)pyrazolo[5,1-b]thiazole-7-carboxamide], the IC50 was greater than 7.5 µM.

`Cc1ncc(NC(=O)CNCC(C)C)cc1NC(=O)c1cnn2cc(-c3cnn4c3OCCC4)sc12` [Example 414, 2-(6,7-dihydro-5H-pyrazolo[5,1-b][1,3]oxazin-3-yl)-N-(5-(2-(isobutylamino)acetamido)-2-methylpyridin-3-yl)pyrazolo[5,1-b]thiazole-7-carboxamide] came in with an IC50 of 5.1 µM.

For the compound `Cc1ncc(NC(=O)CN2CC(C)(C)C2)cc1NC(=O)c1cnn2cc(-c3cnc4n3CCOC4)sc12` [Example 415, 2-(5,6-dihydro-8H-imidazo[2,1-c][1,4]oxazin-3-yl)-N-(5-(2-(3,3-dimethylazetidin-1-yl)acetamido)-2-methylpyridin-3-yl)pyrazolo[5,1-b]thiazole-7-carboxamide], the IC50 is greater than 7.5 µM.

In turn, `Cc1ncc(NC(=O)CN2CCC[C@@H]2C)cc1NC(=O)c1cnn2cc(-c3cnn4c3CCC4)sc12` [Example 416, (S)-2-(5,6-dihydro-4H-pyrrolo[1,2-b]pyrazol-3-yl)-N-(2-methyl-5-(2-(2-methylpyrrolidin-1-yl)acetamido)pyridin-3-yl)pyrazolo[5,1-b]thiazole-7-carboxamide] had an IC50 greater than 7.5 µM.

For `Cc1ncc(NC(=O)CN2CCCC23CCC3)cc1NC(=O)c1cnn2cc(-c3cnn4c3COCC4)sc12` [Example 417, N-(5-(2-(5-azaspiro[3.4]octan-5-yl)acetamido)-2-methylpyridin-3-yl)-2-(6,7-dihydro-4H-pyrazolo[5,1-c][1,4]oxazin-3-yl)pyrazolo[5,1-b]thiazole-7-carboxamide], the IC50 was greater than 7.5 µM.

`Cc1ncc(NC(=O)CN2CCCC23CCC3)cc1NC(=O)c1cnn2cc(-c3cnc4n3CCOC4)sc12` [Example 418, N-(5-(2-(5-azaspiro[3.4]octan-5-yl)acetamido)-2-methylpyridin-3-yl)-2-(5,6-dihydro-8H-imidazo[2,1-c][1,4]oxazin-3-yl)pyrazolo[5,1-b]thiazole-7-carboxamide] showed a half-maximal inhibitory concentration (IC50) greater than 7.5 µM.

Turning to `Cc1ncc(NC(=O)CN2CCCCC2)cc1NC(=O)c1cnn2cc(-c3cnn4c3OCCC4)sc12` [Example 419, 2-(6,7-dihydro-5H-pyrazolo[5,1-b][1,3]oxazin-3-yl)-N-(2-methyl-5-(2-(piperidin-1-yl)acetamido)pyridin-3-yl)pyrazolo[5,1-b]thiazole-7-carboxamide], the IC50 was greater than 7.5 µM.

Consider `Cc1ncc(NC(=O)CN2CCCCCC2)cc1NC(=O)c1cnn2cc(-c3cnn4c3OCCC4)sc12` [Example 420, N-(5-(2-(azepan-1-yl)acetamido)-2-methylpyridin-3-yl)-2-(6,7-dihydro-5H-pyrazolo[5,1-b][1,3]oxazin-3-yl)pyrazolo[5,1-b]thiazole-7-carboxamide], for which the IC50 was greater than 7.5 µM.

In turn, `Cc1ncc(NC(=O)CNC2CCCC2)cc1NC(=O)c1cnn2cc(-c3cnn4c3OCCC4)sc12` [Example 421, N-(5-(2-(cyclopentylamino)acetamido)-2-methylpyridin-3-yl)-2-(6,7-dihydro-5H-pyrazolo[5,1-b][1,3]oxazin-3-yl)pyrazolo[5,1-b]thiazole-7-carboxamide] returned an IC50 greater than 7.5 µM.

In the case of `Cc1ncc(NC(=O)CNC2CCCC2)cc1NC(=O)c1cnn2cc(-c3cnn4c3CCC4)sc12` [Example 422, N-(5-(2-(cyclopentylamino)acetamido)-2-methylpyridin-3-yl)-2-(5,6-dihydro-4H-pyrrolo[1,2-b]pyrazol-3-yl)pyrazolo[5,1-b]thiazole-7-carboxamide], the IC50 is greater than 7.5 µM.

As to `Cc1ncc(NC(=O)CN2CC3(CCCCO3)C2)cc1NC(=O)c1cnn2cc(-c3cnn4c3OCCC4)sc12` [Example 423, N-(5-(2-(5-oxa-2-azaspiro[3.5]nonan-2-yl)acetamido)-2-methylpyridin-3-yl)-2-(6,7-dihydro-5H-pyrazolo[5,1-b][1,3]oxazin-3-yl)pyrazolo[5,1-b]thiazole-7-carboxamide], the IC50 was greater than 7.5 µM.

Turning to `Cc1ncc(NC(=O)CN2CC3(CCCCO3)C2)cc1NC(=O)c1cnn2cc(-c3cnn4c3CCC4)sc12` [Example 424, N-(5-(2-(5-oxa-2-azaspiro[3.5]nonan-2-yl)acetamido)-2-methylpyridin-3-yl)-2-(5,6-dihydro-4H-pyrrolo[1,2-b]pyrazol-3-yl)pyrazolo[5,1-b]thiazole-7-carboxamide], the IC50 is greater than 7.5 µM.
